From article PMC5113665, “HF‐Free Boc Synthesis of Peptide Thioesters for Ligation and Cyclization” (Angewandte Chemie (International Ed. in English), 2016)
Non-standard residues stand in square brackets, D forms with d. Residues, ends and D or L forms follow the SMILES beside them. Phe(4-F) = N[C@@H](Cc1ccc(F)cc1)C(=O)O; d2Nal = N[C@H](Cc1ccc2ccccc2c1)C(=O)O; dNle = CCCC[C@@H](N)C(=O)O

Target: T1, KRAS-GTPγS (Homo sapiens, UniProt P01116)
T1 construct: proteins (amino acids 1-185) were; GST (N, cleaved yes); made in house; host or cells: Escherichia coli BL21
T1 sequence (P01116 1-185 isoform P01116-2): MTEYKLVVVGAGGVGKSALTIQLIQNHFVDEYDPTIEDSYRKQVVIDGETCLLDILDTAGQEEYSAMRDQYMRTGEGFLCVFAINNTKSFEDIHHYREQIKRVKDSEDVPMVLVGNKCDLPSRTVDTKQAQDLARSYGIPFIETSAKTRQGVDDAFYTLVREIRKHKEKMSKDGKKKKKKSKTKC
Assay: Microscale thermophoresis binding to labeled KRAS-GTPγS
Conditions: 25 °C, NT-647 labelled protein, GTPγS-loaded, average of three measurements, read-out: affinity for labeled KRAS-GTPγS
From the text: Cyclization in acetonitrile in the presence of an aqueous imidazole solution gave good results (Figure S23, SI). […] The binding was characterized by microscale thermophoresis studies (Figure 4 D).
VI. Biological analysis of Cyclorasin 9A5
Protein Expression and Purification material and methods:
Human wt-K-Ras and oncogenic K-Ras_G12V proteins (amino acids 1-185) were cloned in pGEX-6P-1 vector that encodes a glutathione S-transferase (GST) tag at the N-terminal of the expressed protein. The constructs were transformed in Escherichia coli BL21 cells – the cells were grown in Luria Broth (LB) media in the presence of 0.1 mg mL-1 ampicillin at 37 °C to an OD 700 then induced by the addition of 0.1 mM IPTG. The bacterial culture was then incubated overnight at 18 °C and harvested the second day by centrifugation. […]
Microscale thermophoresis (MST) measurements were performed using a NanoTemper Monolith™ NT.115 instrument (NanoTemper Technologies GmbH, München, Germany). […] Labeling levels (generally in the range 0.3-0.4 dye molecules per protein) were determined using calculated extinction coefficients and e647 = 250,000 M-1cm-1 for the dye concentration. […]
GTPγS (B) and K-Ras-G12V_ GDP (D). The Kd values for each interaction were calculated as an average of three measurements. […]

`CCCC[C@H]1NC(=O)[C@H](Cc2ccc(F)cc2)NC(=O)[C@H](CCCNC(=N)N)NC(=O)[C@@H](Cc2ccc3ccccc3c2)NC(=O)[C@H](CCCNC(=N)N)NC(=O)[C@H](CCCNC(=N)N)NC(=O)[C@H](CCCNC(=N)N)NC(=O)[C@@H](C)NC(=O)[C@H]([C@@H](C)O)NC(=O)[C@H](Cc2c[nH]c3ccccc23)NC(=O)[C@H](CCC(N)=O)NC1=O` [cyclorasin 9A5] (cyclo(WT[dA]RRR[d2Nal]R[Phe(4-F)][dNle]Q)) gave a Kd of 600 nM.
